Values quoted from earlier work, collected in patent US8658806B2, “Process for preparing optically active antrocin” (Deyew Biotech Corp., priority 2011, dated 2014).

Test system: MDA-MB-231 cells
Conditions: from Rao et al., Chem. Res. Toxicol. 2011, 24, 238-245, read-out: IC50 value against MDA-MB-231 cells of metastatic breast cancer

C=C1CC[C@H]2C(C)(C)CCC[C@@]23C(=O)OC[C@@H]13 [antrocin]
IC50: 600 nM
